According to ChEMBL document CHEMBL5352470, “RS6077 induces mitotic arrest and selectively activates cell death in human cancer cell lines and in a lymphoma tumor in vivo” (Eur J Med Chem, 2023):
pIC50: −log10 of the molar value. The source made the active and inactive calls. The rule behind the calls is not given here.

Experiments:
Tubulin (Homo sapiens) = Tubulin (Homo sapiens) (UniProt P68371+Q9H4B7+P0DPH7+P68366+Q13509+Q71U36+P04350+Q3ZCM7+P07437+P68363+Q9BQE3+Q6PEY2+Q13885+Q9BVA1+Q9BUF5); test: Inhibition of [3H]colchicine binding to tubulin (unknown origin) at 1 to 5 uM relative to control; assay type: protein-complex assay; details: dose 1-5 µM
AHH-1 [1] = test: Antiproliferative activity against human AHH-1 cells assessed as inhibition of cell growth measured for 48 hrs by MTT assay; assay type: functional, cell-based; details: AHH-1, 48 h
MCF7 = test: Antiproliferative activity against human MCF7 cells assessed as inhibition of cell growth measured for 48 hrs by MTT assay; assay type: functional, cell-based; details: MCF7, 48 h
HeLa [2] = test: Antiproliferative activity against human HeLa cells assessed as inhibition of cell growth measured for 48 hrs by MTT assay; assay type: functional, cell-based
TERT-RPE1 [3] = test: Induction of cell cycle arrest in human TERT-RPE1 cells assessed as accumulation of cells at S phase at 100 nM incubated for 72 hrs by annexin V-FITC and PI staining based flow cytometry analysis; assay type: functional
TERT-RPE1 [4] = test: Induction of cell cycle arrest in human TERT-RPE1 cells assessed as accumulation of cells at S phase at 1000 nM incubated for 72 hrs by annexin V-FITC and PI staining based flow cytometry analysis; assay type: functional
HeLa [5] = test: Induction of cell cycle arrest in human HeLa cells assessed as accumulation of cells at G1 phase at 100 nM incubated for 72 hrs by annexin V-FITC and PI staining based flow cytometry analysis; assay type: functional
HeLa [6] = test: Induction of cell cycle arrest in human HeLa cells assessed as accumulation of cells at S phase at 1000 nM incubated for 72 hrs by annexin V-FITC and PI staining based flow cytometry analysis; assay type: functional
HeLa [7] = test: Induction of cell cycle arrest in human HeLa cells assessed as accumulation of cells at S phase at 2500 nM incubated for 72 hrs by annexin V-FITC and PI staining based flow cytometry analysis; assay type: functional
HeLa [8] = test: Induction of cell cycle arrest in human HeLa cells assessed as accumulation of cells at G2/M phase at 2500 nM incubated for 72 hrs by annexin V-FITC and PI staining based flow cytometry analysis; assay type: functional
AHH-1 [9] = test: Induction of cell cycle arrest in human AHH-1 cells assessed as accumulation of cells at S phase at 100 nM incubated for 72 hrs by annexin V-FITC and PI staining based flow cytometry analysis; assay type: functional
AHH-1 [10] = test: Induction of cell cycle arrest in human AHH-1 cells assessed as accumulation of cells at G2/M phase at 1000 nM incubated for 72 hrs by annexin V-FITC and PI staining based flow cytometry analysis; assay type: functional
AHH-1 [11] = test: Induction of cell cycle arrest in human AHH-1 cells assessed as accumulation of cells at G2/M phase at 2500 nM incubated for 72 hrs by annexin V-FITC and PI staining based flow cytometry analysis; assay type: functional
TERT-RPE1 [12] = test: Induction of cell cycle arrest in human RPE-1 cells assessed as accumulation of cells at G2 phase incubated for 72 hrs by annexin V-FITC and PI staining based flow cytometry analysis; assay type: functional
HeLa [13] = test: Induction of apoptosis in human HeLa cells assessed as viable cells measured after 72 hrs by annexin V-FITC and PI staining based flow cytometry analysis; assay type: functional, cell-based; details: dose 100-2500 nM
AHH-1 [14] = test: Induction of apoptosis in human AHH-1 cells at 100 nM measured after 72 hrs by annexin V-FITC and PI staining based flow cytometry analysis; assay type: functional
AHH-1 [15] = test: Induction of apoptosis in human AHH-1 cells at 1000 to 2500 nM measured after 72 hrs by annexin V-FITC and PI staining based flow cytometry analysis; assay type: functional; details: dose 1000-2500 nM
Farage = test: Antiproliferative activity against human Farage cells assessed as inhibition of cell growth measured for 72 hrs by MTT assay; assay type: functional, cell-based
TMD8 [16] = test: Antiproliferative activity against human TMD8 cells assessed as inhibition of cell growth measured for 72 hrs by MTT assay; assay type: functional, cell-based; details: TMD8, 72 h
TMD8 [17] = test: Antitumor activity against human TMD8 cells xenografted in NOD/SCID mouse assessed as reduction in tumor size at 100 mg/kg, po administered for 5 days; assay type: functional, organism-based; details: time 5.0 day
TMD8 [18] = test: Antitumor activity against human TMD8 cells xenografted in NOD/SCID mouse assessed as reduction in tumor volume at 100 mg/kg, po administered for 5 days and measured on day 1; assay type: functional; details: time 1 day
TMD8 [19] = test: Antitumor activity against human TMD8 cells xenografted in NOD/SCID mouse assessed as reduction in tumor volume at 100 mg/kg, po administered for 5 days and measured on day 13; assay type: functional; details: time 13 day
[20] = Toxicity in NOD/SCID mouse assessed as reduction in body condition score at 100 mg/kg, po administered for 5 days; assay type: organism-based; details: in vivo, 120 h, time 5 day
[21] = Metabolic stability in human liver microsome assessed as intrinsic clearance measured upto 60 mins by LC-MS/MS analysis; assay type: ADME; details: liver microsomes, read-out: CLH
[22] = Metabolic stability in mouse liver microsome assessed as half life measured upto 60 mins by LC-MS/MS analysis; assay type: ADME; details: liver microsomes
[23] = Toxicity in human T cells derived from human PBMC assessed as late apoptotic cells at 0.1 uM measured for 48 hrs by annexin V-FITC and PI staining based flow cytometry analysis (reference value: 13.5 to […] %); details: t-cell
[24] = Toxicity in human T cells derived from human PBMC assessed as necrotic cells at 1 uM measured for 48 hrs by annexin V-FITC and PI staining based flow cytometry analysis (reference value: 0.31 to 0.48 %); details: t-cell
[25] = Toxicity in human T cells derived from human PBMC assessed as late apoptotic cells at 2.5 uM measured for 48 hrs by annexin V-FITC and PI staining based flow cytometry analysis (reference value: 13.5 to […] %); details: t-cell
[26] = Toxicity in human T cells derived from human PBMC assessed as necrotic cells at 2.5 uM measured for 48 hrs by annexin V-FITC and PI staining based flow cytometry analysis (reference value: 0.31 to 0.48 %); details: t-cell
[27] = Toxicity in human T cells derived from human PBMC assessed as early apoptotic cells at 0.1 uM measured for 72 hrs by annexin V-FITC and PI staining based flow cytometry analysis (reference value: 9.70 to […]); details: t-cell
[28] = Toxicity in human T cells derived from human PBMC assessed as late apoptotic cells at 0.1 uM measured for 72 hrs by annexin V-FITC and PI staining based flow cytometry analysis (reference value: 11.5 to 17.6%); details: t-cell
[29] = Toxicity in human T cells derived from human PBMC assessed as viable cells at 2.5 uM measured for 72 hrs by annexin V-FITC and PI staining based flow cytometry analysis (reference value: 66.5 to 77.5 %); assay type: cell-based, T-cell; details: read-out: Activity
[30] = Toxicity in human T cells derived from human PBMC assessed as necrotic cells at 2.5 uM measured for 72 hrs by annexin V-FITC and PI staining based flow cytometry analysis (reference value: 0.48 to 0.56 %); details: t-cell

COc1cc(C(=O)c2ccn(-c3ncnc4[nH]ccc34)c2)cc(OC)c1OC
inhibition (Tubulin (Homo sapiens)): 85%
pIC50 (AHH-1 [1]): 7.79
pIC50 (MCF7): 7.42
pIC50 (HeLa [2]): 7.45
Activity (TERT-RPE1 [3]): 2.3%
Activity (TERT-RPE1 [4]): 3.4%
Activity (HeLa [5]): 28.5%
Activity (HeLa [6]): 44.1%
Activity (HeLa [7]): 48.7%
Activity (HeLa [8]): 34.4%
Activity (AHH-1 [9]): 27.2%
Activity (AHH-1 [10]): 70.8%
Activity (AHH-1 [11]): 69.7%
Activity (TERT-RPE1 [12]): inactive
Activity (HeLa [13]): Dose-Dependent Effect
Activity (AHH-1 [14]): 60%
Activity (AHH-1 [15]): 80%
pIC50 (Farage): 7.75
pIC50 (TMD8 [16]): 7.67
Activity (TMD8 [17]): Active
Activity (TMD8 [18]): 252 mm3
Activity (TMD8 [19]): 354 mm3
Activity [20]: Non-Toxic
microsomal CLint [21]: 28 µL/min/mg
half-life [22]: 14.7 min
Activity [23]: 13.3%
Activity [24]: 0.24%
Activity [25]: 12.2%
Activity [26]: 0.41%
Activity [27]: 9.7%
Activity [28]: 11.8%
viability at 72 h, 2.5 µM [29]: 64.3%
Activity [30]: 0.14%
